In patent US20260305610A1, “TRIAZOLE COMPOUND, AND PREPARATION METHOD THEREFOR, HERBICIDAL COMPOSITION AND USE THEREOF” (QINGDAO KINGAGROOT CHEMICAL COMPOUND CO., LTD., priority 2023, published 2026):

Key:
Type in all cases: in vivo
weeds = test: Activity assay of compositions: soil sealing treatment (S), fresh weight inhibition and combined effect (Gowing method); settings: 21 d
Experimental: The required active ingredient B was purchased from a reagent company or a technical material manufacturer or synthesized by a conventional method. The technical materials were all dissolved with acetone solvents and diluted with aqueous solution of 0.1% Tween-80 emulsifier, which should be used immediately after dilution.
• Weeds were cultivated in a controllable sunlight greenhouse at 20 to 30° C., in natural light, and with relative humidity of 57% to 72%. […] The test soil was quantitatively filled to ¾ of the pot, and then watered from the bottom of the pot to completely wet the soil to saturation. The test weed seeds were accelerated to just germinate, and then evenly and quantitatively broadcasted on the soil surface, covered with 0.5-1 cm soil according to the sizes of the seeds, and ready for use 72 hours after sowing.
Each treatment was repeated 4 times. Four pots with 20 weed seeds sowed per pot were treated each time.
The well-sowed test materials were evenly placed on a platform with an area of 0.5 m^2, and foliage spraying was carried out by the 3WP-2000-type walking spray tower at a dosage of 450 kg/ha and a spray pressure of 0.3 MPa. After all the solution was sprayed, the air valve was closed. And 30 seconds later, the door of the spray tower was opened, and the nutritional bowl was taken out. Next, the air valve was opened, and the spray tube was cleaned by spraying 50 ml of water.
A method for investigating absolute numbers was employed. Whole seedlings of survival weeds were cut off along the soil surface with a blade, and the fresh weight of the weeds was weighed using an analytical balance. For dead weeds, the fresh weight thereof was zero.
The investigation was performed 21 days after the treatment for once in total.
The theoretical fresh weight inhibition rate of a mixed combination of each treatment was calculated by the Gowing method (E0=X+Y−X*Y/100). Then compared with the measured inhibition rate (E), the type of the combined effect of the combination of the two on weeds was evaluated, which was a synergistic effect when E−E0>10%; an antagonistic effect when E−E0<−10%; an additional effect when −10%≤E−E0≤10%. An optimal ratio was determined according to factors such as the actual control effects, characteristics of herbicides, balance of the formulation, etc. In the formula, X represents the fresh weight inhibition rate of the active ingredient A in a dosage of P; Y represents the fresh weight inhibition rate of the active ingredient B in a dosage of Q. The statistical results are shown in Table 4.

[1] = tested on: monocotyledonous and dicotyledonous weeds; test: Pre-emergence test experiment (weeds); design: key: 9: completely dead; 8: growth control rate is greater than or equal to 90% and less than 100%; 7: growth control rate is greater than or equal to 80% and less than 90%; 6: growth control rate is greater than or equal to 70% and less than 80%; growth control rate is greater than or equal to 50% and less than 70%; 4: growth control rate is greater than or equal to 30% and less than 50%; growth control rate is greater than or equal to 20% and less than 30%; growth control rate is greater than or equal to 10% and less than 20%; growth control rate is less than 10%; 0: no effect; settings: 30 g a.i./ha
major crops = test: Pre-emergence test experiment (crops); design: key: 9: completely dead; 8: growth control rate is greater than or equal to 90% and less than 100%; 7: growth control rate is greater than or equal to 80% and less than 90%; 6: growth control rate is greater than or equal to 70% and less than 80%; growth control rate is greater than or equal to 50% and less than 70%; 4: growth control rate is greater than or equal to 30% and less than 50%; growth control rate is greater than or equal to 20% and less than 30%; growth control rate is greater than or equal to 10% and less than 20%; growth control rate is less than 10%; 0: no effect; settings: 30 g a.i./ha
[2] = Commelina communis, B 30 g a.i./ha
[3] = Commelina communis, B 60 g a.i./ha
[4] = Lolium multiflorum, B 150 g a.i./ha

| Compound | Pre-emergence activity level (growth control rate) on Amaranthus retroflexus [1] | Pre-emergence activity level (growth control rate) on Descurainia sophia [1] | Pre-emergence activity level (growth control rate) on Digitaria sanguinalis [1] | Pre-emergence activity level (growth control rate) on Setaria viridis [1] | Pre-emergence activity level (growth control rate) on Solanum nigrum [1] | Pre-emergence plant damage level (growth control rate) on Corn (major crops) | Pre-emergence plant damage level (growth control rate) on Cotton (major crops) | Pre-emergence plant damage level (growth control rate) on Soybean (major crops) | Pre-emergence activity level (growth control rate) on Veronica [1] | further results |
| --- | --- | --- | --- | --- | --- | --- | --- | --- | --- | --- |
| COC(=O)[C@@H](C)O/N=C/c1cc(-n2c(=O)cc(C(F)(F)F)n(C)c2=O)c(F)cc1Cl |  |  |  |  |  |  |  |  |  | Control effect of B applied alone in a corresponding dose (%) (weeds; [2]): 28.5%; Control effect of B applied alone in a corresponding dose (%) (weeds; [3]): 46.1% |
| CCC[S@@+]([O-])c1c(C(F)(F)F)ccc(C(=O)Nc2nnc(C)o2)c1F |  |  |  |  |  |  |  |  |  | Control effect of B applied alone in a corresponding dose (%) (weeds; Ammannia arenaria, B 15 g a.i./ha): 26.1%; Control effect of B applied alone in a corresponding dose (%) (weeds; Ammannia arenaria, B 30 g a.i./ha): 43.8% |
| CC1(C)CON(Cc2ccc(Cl)cc2Br)C1=O |  |  |  |  |  |  |  |  |  | Control effect of B applied alone in a corresponding dose (%) (weeds; Lolium multiflorum, B 75 g a.i./ha): 43.7%; Control effect of B applied alone in a corresponding dose (%) (weeds; [4]): 61.0% |
| CC(C)C12CCC(C)(O1)C(OCc1c(F)cccc1Br)C2 (centres unmarked) |  |  |  |  |  |  |  |  |  | Control effect of B applied alone in a corresponding dose (%) (weeds; Lolium multiflorum, B 30 g a.i./ha): 55.2%; Control effect of B applied alone in a corresponding dose (%) (weeds; Lolium multiflorum, B 60 g a.i./ha): 70.4% |
| C[C@@H](Oc1nc(F)c(Cl)c(N)c1Cl)C(=O)OCC1CCCO1 (some centres unmarked) |  |  |  |  |  |  |  |  |  | Control effect of B applied alone in a corresponding dose (%) (weeds; Silene conoidea, B 75 g a.i./ha): 48.0%; Control effect of B applied alone in a corresponding dose (%) (weeds; Silene conoidea, B 150 g a.i./ha): 54.2% |
| C[C@@H](Oc1nc(F)c(Cl)c(N)c1Cl)C(=O)O |  |  |  |  |  |  |  |  |  | Control effect of B applied alone in a corresponding dose (%) (weeds; [4]): 38.4%; Control effect of B applied alone in a corresponding dose (%) (weeds; Lolium multiflorum, B 300 g a.i./ha): 53.7% |
| Cc1ccccc1CO[C@@H]1C[C@@]2(C(C)C)CC[C@]1(C)O2 (racemic) [Cinmethylin] |  |  |  |  |  |  |  |  |  | Control effect of B applied alone in a corresponding dose (%) (weeds; Eclipta prostrata, B 7.5 g a.i./ha): 51.5%; Control effect of B applied alone in a corresponding dose (%) (weeds; Eclipta prostrata, B 15 g a.i./ha): 72.0% |
| CCOC(=O)C1(C)CC(c2cc(-n3c(=O)cc(C(F)(F)F)n(C)c3=O)c(F)cc2Cl)=NO1 (centres unmarked) [3-[2-chloro-5-[3,6-dihydro-3-methyl-2,6-dioxo-4-(trifluoromethyl)-1(2H)-pyrimidinyl]-4-fluorophenyl]-4,5-dihydro-5-methyl-5-isoxazolecarboxylic acid ethyl ester] |  |  |  |  |  |  |  |  |  | Control effect of B applied alone in a corresponding dose (%) (weeds; [2]): 35.0%; Control effect of B applied alone in a corresponding dose (%) (weeds; [3]): 47.3% |
| CCOCN(C(=O)CCl)c1c(C)cccc1CC [Acetochlor] |  |  |  |  |  |  |  |  |  | Control effect of B applied alone in a corresponding dose (%) (weeds; Amaranthus retroflexus, B 150 g a.i./ha): 40.2%; Control effect of B applied alone in a corresponding dose (%) (weeds; Amaranthus retroflexus, B 300 g a.i./ha): 58.3% |
| COP(=S)(OC)SCC(=O)N(c1ccc(Cl)cc1)C(C)(C)C [Anilofos] |  |  |  |  |  |  |  |  |  | Control effect of B applied alone in a corresponding dose (%) (weeds; Eclipta prostrata, B 75 g a.i./ha): 14.2%; Control effect of B applied alone in a corresponding dose (%) (weeds; Eclipta prostrata, B 150 g a.i./ha): 23.6% |
| CCNc1nc(Cl)nc(NC(C)C)n1 [Atrazine] |  |  |  |  |  |  |  |  |  | Control effect of B applied alone in a corresponding dose (%) (weeds; Chloris virgata, B 300 g a.i./ha): 40.1%; Control effect of B applied alone in a corresponding dose (%) (weeds; Chloris virgata, B 600 g a.i./ha): 58.9% |
| COCc1ccc(-n2cnc(C(F)(F)F)n2)nc1Oc1cncc(C(F)(F)F)c1 [Compound 142] | 9 | 9 | 9 | 9 | 9 | 0 | 0 | 0 |  |  |
| COCc1ccc(-n2cnc(C(F)(F)F)n2)nc1Oc1ccc(F)c(C(F)(F)F)c1 [Compound 143] | 9 | 9 | 8 (growth control rate is greater than or equal to 90% and less than 100%) | 9 | 9 | 0 | 0 | 0 | 9 |  |
| COCc1ccc(-n2cnc(C(F)(F)F)n2)nc1Oc1cccc(C(F)F)c1 [Compound 144] | 9 | 9 | 8 (growth control rate is greater than or equal to 90% and less than 100%) | 9 | 9 | 0 | 0 | 0 | 9 |  |
| COCc1ccc(-n2cnc(C(F)(F)F)n2)nc1Oc1cccc(OC(F)(F)F)c1 [Compound 145] | 9 | 9 | 9 | 9 | 9 | 0 | 0 | 0 | 9 |  |
| COCc1ccc(-n2cnc(C(F)(F)F)n2)nc1Oc1ccc(F)c(OC(F)(F)F)c1 [Compound 146] | 9 | 9 | 8 (growth control rate is greater than or equal to 90% and less than 100%) | 9 | 9 | 0 | 0 | 0 | 9 |  |
| COCc1ccc(-n2cnc(C(F)(F)F)n2)nc1Oc1ccc(F)c(OC(F)F)c1 [Compound 147] | 9 | 9 | 8 (growth control rate is greater than or equal to 90% and less than 100%) | 9 | 9 | 0 | 0 | 0 | 9 |  |
| COCc1ccc(-n2cnc(C(F)(F)F)n2)nc1Oc1cccc(OC(F)F)c1 [Compound 148] | 9 | 9 | 8 (growth control rate is greater than or equal to 90% and less than 100%) | 9 | 9 | 0 | 0 | 0 | 9 |  |
| COCc1ccc(-n2cnc(C(F)(F)F)n2)nc1Oc1cccc(C)c1 [Compound 149] |  |  | 8 (growth control rate is greater than or equal to 90% and less than 100%) | 8 (growth control rate is greater than or equal to 90% and less than 100%) |  | 0 | 0 | 0 |  |  |
